Test results reported in patent US20240197761A1, “FUCOSYLATION AND IMMUNE MODULATION IN CANCER” (H. LEE MOFFITT CANCER CENTER AND RESEARCH INSTITUTE, INC., priority 2021, published 2024).

System: SW1 tumors
Experiment: Control vs. L-fucose ± FTY720 model: tumor growth and flow cytometric profiling of tumors and lymph nodes (Table 1)
Assay type: in vivo, C3H/HeN mice
Protocol: FIGS. 15A-15E Lymph node egress is necessary for L-fucose-triggered tumor suppression; L-fucose increases intratumoral CD4+T stem and central memory cells. (a) Immune subpopulations markers use to profile by flow cytometry. (b) Volumetric growth curves for SW1 tumors in C3H/HeN mice fed without (Ctl) or with L-fucose (LF) and treated with FTY720 (Ctl mice administered FTY720: (FTY); LF-supplemented mice administered FTY720: (L+F)). FTY720 was administered at 20 μg per mouse every 2 days starting on Day 12, just prior to the initiation of LF (c) Pie charts showing ratios of intratumoral or lymph node-resident CD4+ or CD8+T cell subpopulations, as well as DC subtypes from mice at Day 14, 28, and 42 (each pie chart represents 4-5 mice). Assessment of cytotoxic CD4+ T cell populations (CRTAM+) and cytotoxic CD8+ T cell populations (GrzB+) from tumors at Day 28 (d) and Day 42 (e). The tumor growth curves are means±SEM from ≥7 mice per group. *=p<0.05.
Tumors of SW1 or SM1 melanoma cells from […] or C57BL/6 mice, respectively) were digested using 1× tumor digest buffer (0.5 mg/mL Collagenase I, 0.5 mg/mL Collagenase IV, 0.25 mg/mL Hyalyronidase V, 0.1 mg/mL DNAse I in HBSS (Millipore Sigma (St. Louis, MO)). Tumors were homogenized using the Miltenyi MACs dissociator. Red blood cells were lysed using ACK lysis buffer (Life Technologies, (Grand Island, NY)). Tumor homogenate cells were counted using a standard hemocytometer.
Total TILs were gated first to single cells (based on forward scatter height vs width, followed by side scatter height vs. width). Live cells were gated from the Zombie negative population from the population above. TILs were gated based on splenocyte size from a control spleen. Individual immune subpopulations were sub-gated from the total TIL population using the following staining criteria: CD3+ for CD3+ T cells; CD3+/CD4+/CD8− for CD4+T cells; CD3+/CD4−/CD8+ for CD8+ T cells, CD11c+/CD11b+ for DCs; either NK1.1 (for C57/BL6 mice) or DX5 (for C3H/HeJ) for NK cells; CD11b+/GR1+ for MDSC-like cells; and F4/80+ for macrophages. Single-cell suspensions from tumor and spleen tissue were stained with Live/Dead Zombie NIR (Biolegend, (San Diego, CA)) at 1:1,000 in PBS for 20 min. Cell suspensions were spun down and stained with the following with antibodies at 0.5 μg/ml per antibody: APC anti-mouse CD3, Pacific Blue anti-mouse CD4, BV785 anti-mouse CD8, PerCP anti-mouse CD25, FITC anti-mouse F4/80, PeCy7 anti-mouse CD11c, PE anti-mouse NK1.1 or PE anti-mouse DX5, and PerCP-Cy5.5 anti-mouse CD11 b. After staining, the cells were washed and fixed (2% formaldehyde), followed by another wash and flow cytometric analysis. The compensation controls were prepared using 0.5 μg/mL of each antibody with UltraComp eBeads, (ThermoFisher Scientific (Waltham, MA)). All samples were subject to flow cytometric profiling using a LSR Flow Cytometer (BD Biosciences (San Jose, CA)) and analysis as indicated using FlowJo software (BD Biosciences (San Jose, CA)).
SW1 or SM1 mouse melanoma cells were injected into syngeneic C3H/HeN (or NSG) female or C57BL/6 male mice, respectively. Cells were injected as follows: parental SW1 cells for FIG. 13A; parental SM1 cells for FIG. 13E; SW1 cells stably expressing either empty vector (EV) or mouse fucose kinase (mFuk) for FIG. 1L; and parental SW1 cells for FIG. 13M. FTY720 was administered at 20 μg every 2 days starting on Day 12, just prior to the initiation of LF, until endpoint.

For `CCCCCCCCc1ccc(CCC(N)(CO)CO)cc1` [FTY720, reference compound], the “CD4 central memory, average # of cells” value (Day 28, lymph nodes) was 1362.38 per 10^6 cells of total tumor, the “CD4 effector memory, average # of cells” value (Day 28, lymph nodes) was 372.53 per 10^6 cells of total tumor and the “CD4 naïve, average # of cells” value (Day 28, lymph nodes) was 20717.91 per 10^6 cells of total tumor. The “CD4 stem central memory, average # of cells” value (shortened to “CD4 stem central memory”) (Day 28, lymph nodes) was 24893.27 per 10^6 cells of total tumor, the “CD8 central memory, average # of cells” value (Day 28, lymph nodes) was 85.45 per 10^6 cells of total tumor and the “CD8 effector memory, average # of cells” value (Day 28, lymph nodes) was 421.08 per 10^6 cells of total tumor. The “CD8 naïve, average # of cells” value (Day 28, lymph nodes) was 6153.14 per 10^6 cells of total tumor, the “CD8 stem central memory, average # of cells” value (“CD8 stem central memory” below) (Day 28, lymph nodes) was 311.59 per 10^6 cells of total tumor and the “cDC1, average # of cells” value (Day 28, lymph nodes) was 147.79 per 10^6 cells of total tumor. For the same compound, the “cDC2, average # of cells” value (Day 28, lymph nodes) was 448.71 per 10^6 cells of total tumor, the “moDC, average # of cells” value (Day 28, lymph nodes) was 41.74 per 10^6 cells of total tumor and the “CD4 central memory, average # of cells” value (Day 28, tumors) was 11.56 per 10^6 cells of total tumor. The “CD4 effector memory, average # of cells” value (Day 28, tumors) was 336.07 per 10^6 cells of total tumor, the “CD4 naïve, average # of cells” value (Day 28, tumors) was 60.03 per 10^6 cells of total tumor and the “CD4 stem central memory” value (Day 28, tumors) was 0.87 per 10^6 cells of total tumor. For the same compound, the “CD8 central memory, average # of cells” value (Day 28, tumors) was 1.22 per 10^6 cells of total tumor, the “CD8 effector memory, average # of cells” value (Day 28, tumors) was 54.02 per 10^6 cells of total tumor and the “CD8 naïve, average # of cells” value (Day 28, tumors) was 24.54 per 10^6 cells of total tumor. For the same compound, the “CD8 stem central memory” value (Day 28, tumors) was 0.00 per 10^6 cells of total tumor, the “cDC1, average # of cells” value (Day 28, tumors) was 463.94 per 10^6 cells of total tumor and the “cDC2, average # of cells” value (Day 28, tumors) was 8181.08 per 10^6 cells of total tumor. For the same compound, the “moDC, average # of cells” value (Day 28, tumors) was 7526.28 per 10^6 cells of total tumor, the “CD4 central memory, average # of cells” value (Day 42, lymph nodes) was 949.35 per 10^6 cells of total tumor and the “CD4 effector memory, average # of cells” value (Day 42, lymph nodes) was 3499.07 per 10^6 cells of total tumor. For the same compound, the “CD4 naïve, average # of cells” value (Day 42, lymph nodes) was 65491.17 per 10^6 cells of total tumor, the “CD4 stem central memory” value (Day 42, lymph nodes) was 742.12 per 10^6 cells of total tumor and the “CD8 central memory, average # of cells” value (Day 42, lymph nodes) was 949.35 per 10^6 cells of total tumor. The “CD8 effector memory, average # of cells” value (Day 42, lymph nodes) was 3499.07 per 10^6 cells of total tumor, the “CD8 naïve, average # of cells” value (Day 42, lymph nodes) was 65491.17 per 10^6 cells of total tumor and the “CD8 stem central memory” value (Day 42, lymph nodes) was 742.12 per 10^6 cells of total tumor. For the same compound, the “cDC1, average # of cells” value (Day 42, lymph nodes) was 1731.49 per 10^6 cells of total tumor, the “cDC2, average # of cells” value (Day 42, lymph nodes) was 3881.72 per 10^6 cells of total tumor and the “moDC, average # of cells” value (Day 42, lymph nodes) was 1219.26 per 10^6 cells of total tumor. For the same compound, the “CD4 central memory, average # of cells” value (Day 42, tumors) was 32.54 per 10^6 cells of total tumor, the “CD4 effector memory, average # of cells” value (Day 42, tumors) was 160.89 per 10^6 cells of total tumor and the “CD4 naïve, average # of cells” value (Day 42, tumors) was 44.22 per 10^6 cells of total tumor. For the same compound, the “CD4 stem central memory” value (Day 42, tumors) was 18.52 per 10^6 cells of total tumor, the “CD8 central memory, average # of cells” value (Day 42, tumors) was 5.73 per 10^6 cells of total tumor and the “CD8 effector memory, average # of cells” value (Day 42, tumors) was 220.02 per 10^6 cells of total tumor. The “CD8 naïve, average # of cells” value (Day 42, tumors) was 19.42 per 10^6 cells of total tumor, the “CD8 stem central memory” value (Day 42, tumors) was 0.00 per 10^6 cells of total tumor and the “cDC1, average # of cells” value (Day 42, tumors) was 607.65 per 10^6 cells of total tumor. For the same compound, the “cDC2, average # of cells” value (Day 42, tumors) was 279.84 per 10^6 cells of total tumor, the “moDC, average # of cells” value (Day 42, tumors) was 197.56 per 10^6 cells of total tumor and the “intratumoral CD4+T central and effector memory subpopulations” value (FIG. 15c) was “abrogated”.
